Reference: ChEMBL document CHEMBL3046056, “Design, synthesis, and biological activity of novel 4-(3,4-dimethoxyphenyl)-2-methylthiazole-5-carboxylic acid derivatives” (2004)

How the values were obtained:
Format in all cases: functional
[1] = tested on: Empoasca fabae; experiment: Insecticidal activity against Empoasca fabae (potato leafhopper) at 600 g ai/ha
[2] = tested on: Myzus persicae; experiment: Insecticidal activity against Myzus persicae (green peach aphid) at 600 g ai/ha
[3] = tested on: Phytophthora infestans; experiment: Fungicidal activity against tomato late blight disease-causing Phytophthora infestans at 375 g ai/ha
[4] = tested on: Empoasca fabae; experiment: Insecticidal activity against Empoasca fabae (potato leafhopper) at 300 g ai/ha
[5] = tested on: Myzus persicae; experiment: Insecticidal activity against Myzus persicae (green peach aphid) at 300 g ai/ha
[6] = tested on: Phytophthora infestans; experiment: Fungicidal activity against tomato late blight disease-causing Phytophthora infestans at 300 g ai/ha

`COC(=O)c1sc(C)nc1-c1ccc(OC)c(OC)c1` showed an Activity [1] of 40%, an Activity [2] of 0% and an Activity [3] of 0%.

Compound `COc1ccc(-c2nc(C)sc2C(=O)O)cc1OC` has an Activity [1] of 20%, an Activity [2] of 0% and an Activity [3] of 0%.

`COc1ccc(-c2nc(C)sc2C(=O)N2CCOCC2)cc1OC` was tested, and the Activity [1] was 20%, the Activity [2] was 20% and the Activity [3] was 90%.

With `CCN(C)C(=O)c1sc(C)nc1-c1ccc(OC)c(OC)c1` the Activity [1] was 40%, the Activity [2] was 40% and the Activity [3] was 0%.

`COc1ccc(-c2nc(C)sc2C(=O)N(C)OC)cc1OC` was tested, and the Activity [1] was 20%, the Activity [2] was 20% and the Activity [3] was 50%.

For `COc1ccc(-c2nc(C)sc2C(=O)NCC#N)cc1OC`, the Activity [1] was 0%, the Activity [2] was 0% and the Activity [3] was 0%.

`CCN(CC)C(=O)c1sc(C)nc1-c1ccc(OC)c(OC)c1` gave an Activity [1] of 40%, an Activity [2] of 0% and an Activity [3] of 0%.

`COc1ccc(-c2nc(C)sc2C(=O)NCCCn2ccnc2)cc1OC` gave an Activity [1] of 0%, an Activity [2] of 0% and an Activity [3] of 75%.

Work on `C#CC(C)(C)NC(=O)c1sc(C)nc1-c1ccc(OC)c(OC)c1` yielded an Activity [1] of 40%, an Activity [2] of 60% and an Activity [3] of 0%.

`C#CC(C)(CC)NC(=O)c1sc(C)nc1-c1ccc(OC)c(OC)c1` (stereo not drawn) showed an Activity [1] of 0%, an Activity [2] of 20% and an Activity [3] of 90%.

`COc1ccc(-c2nc(C)sc2C(=O)Nc2ccccc2)cc1OC` gave an Activity [1] of 40%, an Activity [2] of 20% and an Activity [3] of 0%.

Compound `COc1ccc(-c2nc(C)sc2C(N)=O)cc1OC` has an Activity [1] of 20%, an Activity [2] of 0% and an Activity [3] of 0%.

`C#CCOC(=O)c1sc(C)nc1-c1ccc(OC)c(OC)c1` gave an Activity [1] of 20%, an Activity [2] of 20% and an Activity [3] of 0%.

For `COc1ccc(-c2nc(C)sc2C(=O)OCC(C)C)cc1OC`, the Activity [1] was 20%, the Activity [2] was 20% and the Activity [3] was 75%.

Compound `COc1ccc(C(=CC(=O)N2CCOCC2)c2ccc(Cl)cc2)cc1OC` [DIMETHOMORPH] has an Activity [4] of 0%, an Activity [5] of 0% and an Activity [6] of 100%.

Work on `COc1ccc(/C(=C\C(=O)N2CCOCC2)c2ccc(F)cc2)cc1OC` [FLUMORPH] yielded an Activity [4] of 0%, an Activity [5] of 0% and an Activity [6] of 100%.
